Experimental data: patent US9226495B2, “Disinfection aerosol, method of use and manufacture” (SABAN VENTURES PTY LIMITED, priority 2009, dated 2016)

Assays:
[1] = according OH&S requirements; of Mn; cited from earlier work
[2] = Hydrogen peroxide destruction in bulk solution in a tube, temperature rise as proxy; type: physicochemical; details: antagonist concentrations of below 1×10^−4 M; 0.02M sodium hydroxide; FIG. 3
Source text: Screening was initially conducted using bulk solutions combined in a tube, rather than as aerosols.
During destruction of hydrogen peroxide by Mn(II) or permanganate in tubes the temperature of the solution rather often reached boiling point. This should not happen when the biocide is sprayed as a mist due to absolutely different heat exchange conditions in bulk solution and in a thin layer of biocide. […] By lead time is meant the lag or induction period before the reaction velocity increases steeply.

SMILES | permissible exposure limit [1] [mg/m^3] | time to peak rate of reaction with 35% peroxide [2]
[Mn] [Mn] | 5 | –
[K+].[O]=[Mn](=[O])(=[O])[O-] [KMnO4] | – | about 10 mins
